From patent US9115092B2, “Substituted quinazoline and pyrido-pyrimidine derivatives” (Asana Biosciences, LLC, priority 2010, dated 2015)

Tests used:
mTOR kinase = molecular target: T1, mTOR kinase (Homo sapiens, UniProt P42345); test: mTOR kinase TR-FRET assay; format: biochemical; conditions: read-out: mTO R
T1 construct: purchased Millipore, USA
Procedure, shortened: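 Compounds preincubated 60 min with mTOR (5 ng) in HEPES pH 7.5, EGTA, MnCl2; ULight-p70 S6K Thr389 peptide (50 nM) and ATP (20 μM) then added, 60 min at room temperature. EDTA-stopped, Eu-anti-phospho antibody detection by TR-FRET (665/615 nm); IC50 from variable-slope sigmoidal fit.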

[1] = molecular target: T2, PI3Kα (wild-type), P110/P85α (Homo sapiens, UniProt P42336); test: PI3 Kinase TR-FRET assay, PI3Kα (wild-type); format: biochemical
T2 construct: made in house; host or cells: SF9 insect cells
Procedure, shortened: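 Sf9-expressed His-purified P110/P85α (5 ng) preincubated 60 min RT with compound and PIP2 in buffer with 40 mM MgCl2, 5 mM DTT; reaction started with ATP (PIP2 and ATP both 10 μM), 30 min RT. PIP3 detected by TR-FRET displacement, 665/615 nm ratio; IC50 from dose-response curves.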

T2 sequence (P42336 whole entry): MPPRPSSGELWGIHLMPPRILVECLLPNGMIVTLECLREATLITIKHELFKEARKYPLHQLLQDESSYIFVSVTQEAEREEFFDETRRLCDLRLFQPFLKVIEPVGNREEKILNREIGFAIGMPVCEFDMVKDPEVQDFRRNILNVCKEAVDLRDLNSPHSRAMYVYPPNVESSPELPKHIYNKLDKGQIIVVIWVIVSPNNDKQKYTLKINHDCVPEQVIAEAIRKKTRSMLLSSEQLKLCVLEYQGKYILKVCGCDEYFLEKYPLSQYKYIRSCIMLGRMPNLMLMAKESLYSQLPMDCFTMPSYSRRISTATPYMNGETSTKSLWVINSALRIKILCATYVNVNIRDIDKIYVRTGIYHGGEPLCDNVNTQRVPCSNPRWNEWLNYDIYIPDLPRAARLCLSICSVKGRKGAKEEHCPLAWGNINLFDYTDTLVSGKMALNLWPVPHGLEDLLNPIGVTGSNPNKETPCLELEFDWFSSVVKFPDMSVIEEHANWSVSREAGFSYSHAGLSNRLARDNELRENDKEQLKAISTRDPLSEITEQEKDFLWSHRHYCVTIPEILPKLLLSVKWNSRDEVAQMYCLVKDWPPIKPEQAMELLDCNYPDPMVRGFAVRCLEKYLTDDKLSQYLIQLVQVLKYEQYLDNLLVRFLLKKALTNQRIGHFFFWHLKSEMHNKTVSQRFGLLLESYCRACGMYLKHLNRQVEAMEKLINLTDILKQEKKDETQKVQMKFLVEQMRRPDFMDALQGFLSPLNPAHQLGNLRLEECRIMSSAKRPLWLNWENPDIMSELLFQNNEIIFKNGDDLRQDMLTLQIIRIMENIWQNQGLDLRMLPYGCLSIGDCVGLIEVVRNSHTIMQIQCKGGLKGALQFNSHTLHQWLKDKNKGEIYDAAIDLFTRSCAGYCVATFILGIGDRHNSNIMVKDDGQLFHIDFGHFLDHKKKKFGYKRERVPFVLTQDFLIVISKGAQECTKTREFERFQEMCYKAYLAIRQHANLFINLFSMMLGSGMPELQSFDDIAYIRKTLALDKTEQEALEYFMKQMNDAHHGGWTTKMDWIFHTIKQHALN
T2 sequence (P27986 whole entry partner): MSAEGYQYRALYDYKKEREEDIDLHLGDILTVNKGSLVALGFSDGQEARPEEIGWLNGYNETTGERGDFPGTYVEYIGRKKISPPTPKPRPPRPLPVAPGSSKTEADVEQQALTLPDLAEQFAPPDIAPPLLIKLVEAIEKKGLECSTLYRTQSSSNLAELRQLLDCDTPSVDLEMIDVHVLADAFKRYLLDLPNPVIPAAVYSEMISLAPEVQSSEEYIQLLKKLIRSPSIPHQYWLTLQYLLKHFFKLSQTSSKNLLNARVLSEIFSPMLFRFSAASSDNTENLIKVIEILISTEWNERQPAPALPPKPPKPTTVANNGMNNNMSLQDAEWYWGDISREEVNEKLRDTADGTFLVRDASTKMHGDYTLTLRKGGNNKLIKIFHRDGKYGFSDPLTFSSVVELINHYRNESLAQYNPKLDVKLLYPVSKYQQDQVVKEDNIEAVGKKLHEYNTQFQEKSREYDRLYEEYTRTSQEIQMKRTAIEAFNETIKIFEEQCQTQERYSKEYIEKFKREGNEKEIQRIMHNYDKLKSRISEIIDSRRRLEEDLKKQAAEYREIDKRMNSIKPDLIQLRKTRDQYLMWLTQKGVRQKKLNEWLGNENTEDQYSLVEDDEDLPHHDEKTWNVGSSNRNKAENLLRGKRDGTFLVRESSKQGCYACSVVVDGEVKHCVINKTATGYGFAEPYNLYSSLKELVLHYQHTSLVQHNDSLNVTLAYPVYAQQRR

| IC50 (mTOR kinase) [nM] | IC50 [1] [nM] | SMILES |
| --- | --- | --- |
| < 50 | 50 to 200 | CN(C)CCNC(=O)c1ccc(NC(=O)Nc2ccc(-c3nc(N4CCOCC4)c4ccc(-c5cncnc5)cc4n3)cc2)cc1 [Example 192, N-(2-(dimethylamino)ethyl)-4-(3-(4-(4-morpholino-7-(pyrimidin-5-yl)quinazolin-2-yl)phenyl)ureido)-benzamide] |
| 50 to 200 | 50 to 200 | CN1CCN(C(=O)c2ccc(NC(=O)Nc3ccc(-c4nc(N5CCOCC5)c5ccc(-c6ccncc6)cc5n4)cc3F)cc2)CC1 [Example 212, 1-(2-fluoro-4-(4-morpholino-7-(pyridin-4-yl)quinazolin-2-yl)phenyl)-3-(4-(4-methylpiperazine-1-carbonyl)phenyl)urea] |
| 50 to 200 | < 50 | CN(C)C(=O)c1ccc(NC(=O)Nc2ccc(-c3nc(N4CCOCC4)c4ncc(-c5ccc(CO)o5)cc4n3)cc2F)cc1 [Example 218, 4-(3-(2-fluoro-4-(7-(5-(hydroxymethyl)furan-2-yl)-4-morpholino-pyrido[3,2-d]pyrimidin-2-yl)phenyl)ureido)-N,N-dimethyl-benzamide] |
| 50 to 200 | 50 to 200 | CN(C)C(=O)c1ccc(NC(=O)Nc2ccc(-c3nc(N4CCOCC4)c4ccc(-c5ccc(CO)o5)cc4n3)cc2)c(F)c1 [Example 219, 3-fluoro-4-(3-(4-(7-(5-(hydroxymethyl)furan-2-yl)-4-morpholino-quinazolin-2-yl)phenyl)ureido)-N,N-dimethyl-benzamide] |
| < 50 | 50 to 200 | CN(C)CCNC(=O)c1ccc(-c2ccc3c(N4CCOCC4)nc(-c4ccc(NC(=O)Nc5ccc(C(=O)N(C)C)cc5)cc4)nc3c2)o1 [Example 225, N-(2-(dimethylamino)ethyl)-5-(2-(4-(3-(4-(dimethylcarbamoyl)phenyl)ureido)phenyl)-4-morpholino-quinazolin-7-yl)furan-2-carboxamide] |
| 50 to 200 | 201 to 10000 | CC(O)c1ccc(-c2ccc3c(N4CCOCC4)nc(-c4ccc(NC(=O)Nc5ccc(C(=O)N(C)C)cc5F)cc4)nc3c2)o1 (stereo not shown) [Example 227, 3-fluoro-4-(3-(4-(7-(5-(1-hydroxyethyl)furan-2-yl)-4-morpholino-quinazolin-2-yl)phenyl)ureido)-N,N-dimethyl-benzamide] |
| < 50 | < 50 | CN(C)C(=O)c1ccc(NC(=O)Nc2ccc(-c3nc(N4CCOCC4)c4ccc(-c5ccc(C(=O)N(C)C)o5)cc4n3)cc2)cc1 [Example 229, 5-(2-(4-(3-(4-(dimethylcarbamoyl)phenyl)ureido)phenyl)-4-morpholine-quinazolin-7-yl)-N,N-dimethylfuran-2-carboxamide] |
| < 50 | < 50 | CN(C)C(=O)c1ccc(NC(=O)Nc2ccc(-c3nc(N4CCOCC4)c4ncc(-c5cnc(N(C)C)nc5)cc4n3)cc2)cc1 [Example 230, 4-(3-(4-(7-(2-(dimethylamino)pyrimidin-5-yl)-4-morpholino-pyrido[3,2-d]pyrimidin-2-yl)phenyl)ureido)-N,N-dimethyl-benzamide] |
| < 50 | 50 to 200 | CN(C)C(=O)c1ccc(NC(=O)Nc2ccc(-c3nc(N4CCOCC4)c4ccc(-c5cnc(N(C)C)nc5)cc4n3)cc2F)cc1 [Example 231, 4-(3-(4-(7-(2-(dimethylamino)pyrimidin-5-yl)-4-morpholino-quinazolin-2-yl)-2-fluorophenyl)ureido)-N,N-dimethyl-benzamide] |
| < 50 | < 50 | O=C(Nc1ccc(C(=O)N2CCC(O)C2)cc1)Nc1ccc(-c2nc(N3CCOCC3)c3ccc(-c4ccco4)cc3n2)cc1 (stereo not shown) [Example 232, 1-(4-(7-(furan-2-yl)-4-morpholino-quinazolin-2-yl)phenyl)-3-(4-(3-hydroxypyrrolidine-1-carbonyl)phenyl)urea] |
| < 50 | < 50 | CN(C)CCNC(=O)c1ccc(NC(=O)Nc2ccc(-c3nc(N4CCOCC4)c4ccc(-c5ccco5)cc4n3)cc2)cc1 [Example 235, N-(2-(dimethylamino)ethyl)-4-(3-(4-(7-(furan-2-yl)-4-morpholino-quinazolin-2-yl)phenyl)ureido)-benzamide] |
| < 50 | < 50 | CN(C)CCN(C)C(=O)c1ccc(NC(=O)Nc2ccc(-c3nc(N4CCOCC4)c4ccc(-c5ccco5)cc4n3)cc2)cc1 [Example 236, N-(2-(dimethylamino)ethyl)-4-(3-(4-(7-(furan-2-yl)-4-morpholino-quinazolin-2-yl)phenyl)ureido)-N-methyl-benzamide] |
| 50 to 200 | 50 to 200 | Cc1ccc(-c2ccc3c(N4CCOCC4)nc(-c4ccc(NC(=O)Nc5ccc(C(=O)N(C)C)cc5)cc4F)nc3c2)o1 [Example 239, 4-(3-(3-fluoro-4-(7-(5-methylfuran-2-yl)-4-morpholino-quinazolin-2-yl)phenyl)ureido)-N,N-dimethyl-benzamide] |
| < 50 | < 50 | CN(C)C(=O)c1ccc(NC(=O)Nc2ccc(-c3nc(N4CCOCC4)c4ncc(-c5cccnc5F)cc4n3)cc2)cc1F [Example 248, 2-fluoro-4-(3-(4-(7-(2-fluoropyridin-3-yl)-4-morpholino-pyrido[3,2-d]pyrimidin-2-yl)phenyl)ureido)-N,N-dimethyl-benzamide] |
| < 50 | 50 to 200 | CN(C)C(=O)c1ccc(NC(=O)Nc2ccc(-c3nc(N4CCOCC4)c4ccc(-c5cnn(C)c5)cc4n3)c(F)c2)cc1 [Example 249, 4-(3-(3-fluoro-4-(7-(1-methyl-1H-pyrazol-4-yl)-4-morpholino-quinazolin-2-yl)phenyl)ureido)-N,N-dimethyl-benzamide] |
| < 50 | 201 to 10000 | CN(C)C(=O)c1ccc(NC(=O)Nc2ccc(-c3nc(N4CCOCC4)c4ccc(-c5cncnc5)cc4n3)c(F)c2)cn1 [Example 251, 5-(3-(3-fluoro-4-(4-morpholino-7-(pyrimidin-5-yl)quinazolin-2-yl)phenyl)ureido)-N,N-dimethylpicolinamide] |
| 50 to 200 | 50 to 200 | Cc1noc(C)c1-c1ccc2c(N3CCOCC3)nc(-c3ccc(NC(=O)Nc4ccc(C(=O)N(C)C)cc4)cc3F)nc2c1 [Example 252, 4-(3-(4-(7-(3,5-dimethylisoxazol-4-yl)-4-morpholino-quinazolin-2-yl)-3-fluorophenyl)ureido)-N,N-dimethyl-benzamide] |
| 50 to 200 | 201 to 10000 | CC1CN(c2nc(-c3ccc(NC(=O)Nc4ccc(C(=O)N(C)C)cc4)cc3F)nc3cc(-c4cncnc4)ccc23)CCO1 (stereo not shown) [Example 254, 4-(3-(3-fluoro-4-(4-(2-methylmorpholino)-7-(pyrimidin-5-yl)quinazolin-2-yl)phenyl)ureido)-N,N-dimethyl-benzamide] |
| 50 to 200 | 50 to 200 | COc1ccc(-c2ccc3c(N4CCOCC4)nc(-c4ccc(NC(=O)Nc5ccc(C(=O)N(C)C)cc5)cc4F)nc3c2)cn1 [Example 258, 4-(3-(3-fluoro-4-(7-(6-methoxypyridin-3-yl)-4-morpholino-quinazolin-2-yl)phenyl)ureido)-N,N-dimethyl-benzamide] |
| < 50 | < 50 | CN(C)C(=O)c1ccc(NC(=O)Nc2ccc(-c3nc(N4CCOCC4)c4ncc(-c5cccnc5)cc4n3)c(F)c2)cc1 [Example 261, 4-(3-(3-fluoro-4-(4-morpholino-7-(pyridin-3-yl)pyrido[3,2-d]pyrimidin-2-yl)phenyl)ureido)-N,N-dimethyl-benzamide] |
| < 50 | < 50 | CN(C)C(=O)c1ccc(NC(=O)Nc2ccc(-c3nc(N4CCOCC4)c4ncc(-c5cncnc5)cc4n3)cc2)cc1F [Example 262, 2-fluoro-N,N-dimethyl-4-(3-(4-(4-morpholino-7-(pyrimidin-5-yl)pyrido[3,2-d]pyrimidin-2-yl)phenyl)ureido)-benzamide] |
| < 50 | < 50 | COc1ncc(-c2cnc3c(N4CCOCC4)nc(-c4ccc(NC(=O)Nc5ccc(C(=O)N(C)C)cc5)cc4F)nc3c2)cn1 [Example 263, 4-(3-(3-fluoro-4-(7-(2-methoxypyrimidin-5-yl)-4-morpholino-pyrido[3,2-d]pyrimidin-2-yl)phenyl)ureido)-N,N-dimethyl-benzamide] |
| < 50 | < 50 | CN(C)C(=O)c1ccc(NC(=O)Nc2ccc(-c3nc(N4CCOCC4)c4ncc(-c5cccnc5)cc4n3)cc2)cc1F [Example 264, 2-fluoro-N,N-dimethyl-4-(3-(4-(4-morpholino-7-(pyridin-3-yl)pyrido[3,2-d]pyrimidin-2-yl)phenyl)ureido)-benzamide] |
| 50 to 200 | 50 to 200 | Cc1ccc(-c2ccc3c(N4CCOCC4)nc(-c4ccc(NC(=O)Nc5ccc(C(=O)N(C)C)c(F)c5)cc4)nc3c2)o1 [Example 266, 2-fluoro-N,N-dimethyl-4-(3-(4-(7-(5-methylfuran-2-yl)-4-morpholino-quinazolin-2-yl)phenyl)ureido)-benzamide] |
| < 50 | < 50 | Cc1nn(C)c(C)c1-c1ccc2c(N3CCOCC3)nc(-c3ccc(NC(=O)Nc4ccc(C(=O)N(C)C)cc4)cc3F)nc2c1 [Example 269, 4-(3-(3-fluoro-4-(4-morpholino-7-(1,3,5-trimethyl-1H-pyrazol-4-yl)quinazolin-2-yl)phenyl)ureido)-N,N-dimethyl-benzamide] |
| 50 to 200 | 50 to 200 | COc1ncccc1-c1ccc2c(N3CCOCC3)nc(-c3ccc(NC(=O)Nc4ccc(C(=O)N(C)C)cc4)cc3F)nc2c1 [Example 270, 4-(3-(3-fluoro-4-(7-(2-methoxypyridin-3-yl)-4-morpholino-quinazolin-2-yl)phenyl)ureido)-N,N-dimethyl-benzamide] |
